Assay results published in patent publication US6875758B2, “Method of treating hyperlipidemic and hyperglycemic conditions in mammals using pregnadienols and pregnadienones” (Council of Scientific & Industrial Research, priority 1999, dated 2005).

Tests used:
Human serum LDL = assay: Cu2+ induced oxidation of low density lipoprotein (TBA reactive lipid peroxides); type: biochemical; settings: for MDA (Exp.): 16 hr at 37° C., pH 7.4; for generation of LDL lipid peroxide (in words): tested concentrations
Method: Human serum LDL was oxidized with Cu^′2 in different concentrations of test compound in 0.05 mole PBS, pH 7.4 for 16 hr at 37° C. Thiobarbituric acid reactive lipid peroxides are measured by standard procedure. […] Cu^′2 induced oxidation in LDL lipids are mainly due to the free OH radical during incubation.

[1] = tested on: isoproterneol induced myocardial necrosis in rat; assay: Isoproterneol induced myocardial necrosis in rats; type: in vivo; settings: isoproterneol 85 mg/kg + drug 25 mg/kg p.o.
From the text: The underlying cause of myocardial infarction is believed to be the progressive deposition of lipids and fibrotic material into the arterial wall. These pregnadienols and pregnadienous also provided cardiac protection as assessed in isoproterneol induced myocardial necrosis in rat model, which produces myocardial infarction due to an increased blood pressure and heart rate.

[2] = Hydroxy (OH) radical formation in nonenzymatic system (Fe2+, ascorbate, H2O2, deoxyribose); type: biochemical
[3] = tested on: cholesterol fed hyperlipidemic rats; assay: Lipid peroxidation in cholesterol fed hyperlipidemic rats; type: in vivo
Triton treated rats = assay: Cholesterol lowering in Triton treated rats; type: in vivo, Charles Foster rats
From the text: The primary hypolipidemic effect of these compounds was established in triton induced hyperlipidemia in Charles Foster rats. […] The cholesterol lowering effect of some representative compounds of pregrenadienols and pregrenadienones as compared to clofibrate and gugulsterone in triton treated Charles Foster rats is described in Table-2.

normal rats = assay: Hypolipidemic activity in normal rats; type: in vivo; settings: 50 mg/kg
Method: In normal rats, 3β-hydroxypregna-5,16-dien-20one (2), at 50 mg/kg produced a significant lowering of serum cholesterol and triglycerides as describe in Table-3 below.

glucose loaded rats = assay: Hypoglycemic activity in glucose loaded rats; type: in vivo, albino rats (Charles Foster strain); settings: for Blood Glucose Level: 100 mg/kg p.o. + glucose 2.0 g/kg; for % inhibition compared to control (blood glucose): 100 mg/kg
Method: The experiments were carried out with albino rats (Charles Foster strain) of either sex weighing 150-160 g. They were fed on laboratory diet prepared by M/s Lipton India Ltd. and maintained under 12 hr. light/dark cycle at 25±2° C.
The animals were divided into eight groups, each of six rats; group I was given 1% gum acacia (0.1 ml/100 g body weight) intragastrically (p.o.) and the group II were given 3β-hydroxypregna-5,16-dien-20-one (2) in 1% gum acacia. Animals of group III were given the standard antidiabetic drug, tolbutamide in the similar fashion. 2.0 g/kg glucose was given p.o. to all the rats along with the vehicle/Compound/Standard antidiabetic drug. Blood samples were taken from retroorbital plexus at periodic intervals. Glucose levels in the blood samples were measured by glucose oxidase method [Bergmeyer and Benut, 1963 cited in “Methods of Enzymatic Analysis” ed. H. Bergmeyer, Verlag Chemie, GmBH, Weinheim, Beroster, pp123, Academic press, New York].

[4] = tested on: streptozotocin induced diabetic rats; assay: Hypoglycemic activity in streptozotocin induced hyperglycemic rats; type: in vivo; settings: 100 mg/kg p.o.
Method: Hyperglycemia in rats was produced by streptozotocin treatment. The animals showing blood glucose levels between 250-350 mg/dl were selected. Blood samples were collected after treatment at intervals and blood glucose levels were estimated immediately.

[5] = Rattus norvegicus, ip, 50 mg/kg i.p., read-out: % Change S. Chol.

Cc1ccc(C)c(OCCCC(C)(C)C(=O)O)c1 [Gemfibrozil, reference compound]
MDA (Exp.) (Human serum LDL; 2.5 μmol/ml): 53.0 ± 6.0 n mol MDA/mg protein
% inhibition of LDL oxidation (Human serum LDL; 5.0 μmol/ml): (5) %
MDA (Exp.) (Human serum LDL; 5.0 μmol/ml): 48.8 ± 6.7 n mol MDA/mg protein
MDA (Exp.) (Human serum LDL; 10.0 μmol/ml): 43.8 ± 4.9 n mol MDA/mg protein
% inhibition of LDL oxidation (Human serum LDL; 20 μmol/ml): (16) %
MDA (Exp.) (Human serum LDL; 20 μmol/ml): 41.4 ± 5.0 n mol MDA/mg protein
generation of LDL lipid peroxide (in words) (Human serum LDL): did not inhibit
Heart Ca. - ATPase % Protection [1]: 30.2%
Heart Glycogen % Protection [1]: 32.1%
Heart Lipid peroxide % Protection [1]: 69.8%
Heart Phospholipase % Protection [1]: 28.2%
Serum Alkaline Phosphatase % Protection [1]: 41.2%
Serum CPK % Protection [1]: 33.9%
Serum GOT % Protection [1]: 24.9%
Serum GPT % Protection [1]: 33.4%
% inhibition of OH radical formation ([2]; 5 μmol/ml): (4) %
OH radical formation ([2]; 5 μmol/ml): 79.9 ± 6.8 nmol MDA/hr
% inhibition of OH radical formation ([2]; 10 μmol/ml): (5) %
OH radical formation ([2]; 10 μmol/ml): 78.5 ± 8.0 nmol MDA/hr
% inhibition of OH radical formation ([2]; 20 μmol/ml): (8) %
OH radical formation ([2]; 20 μmol/ml): 76.8 ± 7.4 nmol MDA/hr
% inhibition of OH radical formation ([2]; 30 μmol/ml): (8) %
OH radical formation ([2]; 30 μmol/ml): 76.4 ± 3.8 nmol MDA/hr
% inhibition of OH radical formation ([2]; 40 μmol/ml): (11) %
OH radical formation ([2]; 40 μmol/ml): 74.3 ± 6.3 nmol MDA/hr
% inhibition of OH radical formation ([2]; 50 μmol/ml): (13) %
OH radical formation ([2]; 50 μmol/ml): 72.4 ± 8.0 nmol MDA/hr
HDL lipid peroxides ([3]; cholesterol + drug 25 mg/kg): 134 ± 13 n mol MDA/dl
HDL lipid peroxides % reversal as compared with cholesterol fed rats ([3]; cholesterol + drug 25 mg/kg): (−3) %
LDL lipid peroxides ([3]; cholesterol + drug 25 mg/kg): 568 ± 62 n mol MDA/dl
LDL lipid peroxides % reversal as compared with cholesterol fed rats ([3]; cholesterol + drug 25 mg/kg): (−6) %
Liver lipid peroxides ([3]; cholesterol + drug 25 mg/kg): 253 ± 26 n mol MDA/g
Liver lipid peroxides % reversal as compared with cholesterol fed rats ([3]; cholesterol + drug 25 mg/kg): (−8) %
Serum lipid peroxides ([3]; cholesterol + drug 25 mg/kg): 1161 ± 74 n mol MDA/dl
Serum lipid peroxides % reversal as compared with cholesterol fed rats ([3]; cholesterol + drug 25 mg/kg): (−5) %
VLDL lipid peroxides ([3]; cholesterol + drug 25 mg/kg): 346 ± 10 n mol MDA/dl
VLDL lipid peroxides % reversal as compared with cholesterol fed rats ([3]; cholesterol + drug 25 mg/kg): (−9) %
lipid peroxide levels in serum VLDL, LDL and liver (in words) ([3]; cholesterol fed animals, simultaneous treatment): failed to protect

CC=C1C(OC(C)=O)C[C@H]2[C@@H]3CC=C4CC(OC(C)=O)CC[C@]4(C)[C@H]3CC[C@]12C (stereo partly drawn) [Compound 7, 5,17(20)-Dienpregna-3,16-diol-diacetate]
% Change S. Chol. (Triton treated rats; 50 mg/kg i.p.): −33%

CC(=O)[C@H]1CC[C@H]2[C@@H]3CC=C4C[C@@H](O)CC[C@]4(C)[C@H]3CC[C@]12C [Compound 5, 3β-Hydroxypregna-5-en-20-one]
change in vivo at 100 mg/kg (Triton treated rats; Rattus norvegicus, ip, 100 mg/kg i.p., read-out: % Change S. Chol.): -9%

C/C=C1/C(=O)CC2C3CCC4=CC(=O)CC[C@]4(C)C3CC[C@]12C (stereo partly drawn) [Compound 9, Gugulsterone, reference compound]
change in vivo at 50 mg/kg (Triton treated rats; [5]): -44%

Cc1c(C)c2c(c(C)c1O)CC[C@@](C)(CCC[C@H](C)CCC[C@H](C)CCCC(C)C)O2 [α-Tocopherol]
% inhibition of LDL oxidation (Human serum LDL; 0.25 μmol/ml): (3) %
MDA (Exp.) (Human serum LDL; 0.25 μmol/ml): 44.7 ± 4.5 n mol MDA/mg protein
% inhibition of LDL oxidation (Human serum LDL; 0.5 μmol/ml): (13) %
MDA (Exp.) (Human serum LDL; 0.5 μmol/ml): 41.6 ± 4.0 n mol MDA/mg protein
MDA (Exp.) (Human serum LDL; 1.0 μmol/ml): 35.0 ± 3.8 n mol MDA/mg protein
% inhibition of LDL oxidation (Human serum LDL; 2.0 μmol/ml): (51) %
MDA (Exp.) (Human serum LDL; 2.0 μmol/ml): 24.3 ± 2.0 n mol MDA/mg protein
generation of LDL lipid peroxide (in words) (Human serum LDL): inhibit the generation of LDL lipid peroxide in concentration dependent manner
% inhibition of OH radical formation ([2]; 1 μmol/ml): (23) %
OH radical formation ([2]; 1 μmol/ml): 60.4 ± 7.0 nmol MDA/hr
% inhibition of OH radical formation ([2]; 2 μmol/ml): (42) %
OH radical formation ([2]; 2 μmol/ml): 45.2 ± 3.3 nmol MDA/hr
% inhibition of OH radical formation ([2]; 3 μmol/ml): (59) %
OH radical formation ([2]; 3 μmol/ml): 32.4 ± 3.5 nmol MDA/hr
% inhibition of OH radical formation ([2]; 4 μmol/ml): (65) %
OH radical formation ([2]; 4 μmol/ml): 27.1 ± 2.8 nmol MDA/hr
% inhibition of OH radical formation ([2]; 5 μmol/ml): (73) %
OH radical formation ([2]; 5 μmol/ml): 20.9 ± 2.0 nmol MDA/hr

CCOC(=O)C(C)(C)Oc1ccc(Cl)cc1 [Compound 10, Clofibrate, reference compound]
Serum Cholesterol (normal rats; 0 Days): 82.3 ± 3.3 mg %
Serum Cholesterol (normal rats; 30 Days): 53.2 ± 2.0 mg %
Serum Cholesterol % Fall (normal rats; 30 Days): 36%
Serum Triglycerides (normal rats; 30 Days): 47.3 ± 3.2 mg %
Serum Triglycerides % Fall compared to control (normal rats; 30 Days): 28%
change in vivo at 200 mg/kg (Triton treated rats; Rattus norvegicus, ip, 200 mg/kg i.p., read-out: % Change S. Chol.): -15%

CC(=O)C1=CCC2C3CCC4=CC(=O)CC[C@]4(C)C3CC[C@]12C (stereo partly drawn) [Compound 3, 4,16-Dienpregna-3,20-dione]
change in vivo at 50 mg/kg (Triton treated rats; [5]): -13%

CC(=O)O[C@H]1CC[C@@]2(C)C(=CC[C@@H]3[C@@H]2CC[C@]2(C)C(C(C)=O)=CC[C@@H]32)C1 [Compound 1, 3β-Acetoxypregna-5,16-dien-20-one]
change in vivo at 50 mg/kg (Triton treated rats; [5]): -43%

CCCCNC(=O)NS(=O)(=O)c1ccc(C)cc1 [Tolbutamide, reference compound]
Maximum Blood Glucose Change (glucose loaded rats; 100 mg/kg p.o. + glucose): −41.7%
Blood Glucose Level (glucose loaded rats; 0 min): 38.15 ± 2.02 mg/dL
Blood Glucose Level (glucose loaded rats; 30 min): 76.31 ± 6.29 mg/dL
Blood Glucose Level (glucose loaded rats; 60 min): 27.26 ± 3.1 mg/dL
Blood Glucose Level (glucose loaded rats; 90 min): 24.64 ± 1.92 mg/dL
Blood Glucose Level (glucose loaded rats; 120 min): 23.07 ± 3.11 mg/dL
% inhibition compared to control (blood glucose) (glucose loaded rats; 30 min): (35) %
% inhibition compared to control (blood glucose) (glucose loaded rats; 60 min): (100) %
% inhibition compared to control (blood glucose) (glucose loaded rats; 90 min): (100) %
% inhibition compared to control (blood glucose) (glucose loaded rats; 120 min): (100) %
Blood Glucose Level ([4]; 0 hr): 292 ± 10 mg/dL
% lowering from zero hour value (blood glucose) ([4]; 1 hr): (25.3) %
% lowering from zero hour value (blood glucose) ([4]; 2 hr): (29.1) %
% lowering from zero hour value (blood glucose) ([4]; 3 hr): (30.8) %
% lowering from zero hour value (blood glucose) ([4]; 4 hr): (33.2) %
% lowering from zero hour value (blood glucose) ([4]; 5 hr): (37.3) %
% lowering from zero hour value (blood glucose) ([4]; 6 hr): (40.4) %
% lowering from zero hour value (blood glucose) ([4]; 7 hr): (34.2) %
% lowering from zero hour value (blood glucose) ([4]; 8 hr): (17.1) %
Blood Glucose Level ([4]; 24 hr): 332 ± 26 mg/dL

CC(O)C1=CCC2C3CC=C4CC(O)CC[C@]4(C)C3CC[C@]12C (stereo partly drawn) [Compound 6, 5,16-Dien-pregnane-3,20-diol]
change in vivo at 50 mg/kg (Triton treated rats; [5]): -10%

C/C=C1/C(O)CC2C3CC=C4CC(O)CC[C@]4(C)C3CC[C@]12C (stereo partly drawn) [Compound 8, 5,17(20)-Dienpregna-3,16-diol]
change in vivo at 50 mg/kg (Triton treated rats; [5]): -31%

CC(=O)O[C@H]1CC[C@@]2(C)C(=CC[C@H]3[C@@H]4CC[C@H](C(C)=O)[C@@]4(C)CC[C@@H]32)C1 [Compound 4, 3β-Aceoxypregna-5-en-20-one]
% Change S. Chol. (Triton treated rats; 100 mg/kg i.p.): −12%
